These results are taken from PMC12974487, “Inhibition of FicD-mediated AMPylation and deAMPylation by isoprenoid diphosphates” (Proceedings of the National Academy of Sciences of the …, 2026).

Assay [1] concerns the target T1, FicD^WT (Homo sapiens, UniProt Q9BVA6).
T1 construct: soluble ER luminal domain (residues 105 to 458) of wild-type human FicD; 6xHis-Sumo (N, cleaved yes); made in house; host or cells: Rosetta(DE3) E. coli
T1 sequence (Q9BVA6 105-458): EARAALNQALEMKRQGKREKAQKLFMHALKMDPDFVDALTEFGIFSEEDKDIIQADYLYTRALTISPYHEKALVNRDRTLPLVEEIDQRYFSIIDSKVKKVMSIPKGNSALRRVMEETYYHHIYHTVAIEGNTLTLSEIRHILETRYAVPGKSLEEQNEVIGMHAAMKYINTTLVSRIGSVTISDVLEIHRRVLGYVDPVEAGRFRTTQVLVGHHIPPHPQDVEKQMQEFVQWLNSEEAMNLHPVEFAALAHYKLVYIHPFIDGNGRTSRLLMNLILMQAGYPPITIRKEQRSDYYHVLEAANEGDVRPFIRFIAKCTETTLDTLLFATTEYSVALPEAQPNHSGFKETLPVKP
The assay is described as follows: In vitro AMPylation of Δ26hBiP^T229A by FicD^WT (Western blot). To be noted: for inhibition of AMPylation of Δ26hBiP^T229A by FicD^WT: 100 μM metabolite, 500 μM ATP, 5 mM MgCl2; for concentration at which inhibition of AMPylation started: dose-response Western blot, FicD^WT. Format: biochemical. From the text: (§1) We next sought to assess the effects of FPP, GPP, and isoprenoid analogues on FicD activity. To accurately judge the effects of small molecules on FicD AMPylation activity, we used the ATPase defective BiP^T229A mutant as substrate ([22], [49], [50]). Loss of ATP hydrolysis by the BiP mutant ensures: 1. conformational homogeneity of the BiP protein substrate; 2. lack of BiP competition for the ATP substrate; and 3. no production of ADP, a competitive inhibitor for ATP. In addition, we deleted the first 25 amino acids of BiP for ease with its purification and solubility. […]
For AMPylation assays with FicD and BiP, Δ104FicDWT and Δ26hBiPT229A were combined at a ratio
of 1:80 in buffer containing 25mM HEPES pH 7.4, 100mM KCl, 5mM MgCl2, 500μM ATP, 1mM
DTT, and small molecule where indicated. Assays with Δ104FicDWT were incubated for 1 hour.
the amount of FicD as in reactions containing FicDWT and were incubated at 37C for 4.5 hours. […]
On the technique in general: In western blotting, separated proteins are transferred to a membrane and probed.

The target of a further assay is T2, FicD^E234G (Homo sapiens, UniProt Q9BVA6, E234G).
T2 construct: soluble ER luminal domain (residues 105 to 458) of wild-type human FicD and three mutants; 6xHis-Sumo (N, cleaved yes); made in house; host or cells: Rosetta(DE3) E. coli
T2 sequence (Q9BVA6 105-458 E234G): T1 sequence (Q9BVA6 105-458) with E130G
The assay is described as follows: MIDAS metabolite screen, FicD^E234G. Format: binding. To be noted: cutoff Q < 0.05 and |Log2 corrected fold change| > 2, metabolites 5 µM.

In another assay the target is T3, BiP (Homo sapiens, UniProt P11021, T229A).
T3 construct: BiPT229A (residues 27-654) was expressed as an 6xHis-Thrombin-T7 n-terminal fusion; 6xHis-Thrombin-T7 (N); made in house; host or cells: Rosetta(DE3) E. coli
T3 sequence (P11021 27-654 T229A): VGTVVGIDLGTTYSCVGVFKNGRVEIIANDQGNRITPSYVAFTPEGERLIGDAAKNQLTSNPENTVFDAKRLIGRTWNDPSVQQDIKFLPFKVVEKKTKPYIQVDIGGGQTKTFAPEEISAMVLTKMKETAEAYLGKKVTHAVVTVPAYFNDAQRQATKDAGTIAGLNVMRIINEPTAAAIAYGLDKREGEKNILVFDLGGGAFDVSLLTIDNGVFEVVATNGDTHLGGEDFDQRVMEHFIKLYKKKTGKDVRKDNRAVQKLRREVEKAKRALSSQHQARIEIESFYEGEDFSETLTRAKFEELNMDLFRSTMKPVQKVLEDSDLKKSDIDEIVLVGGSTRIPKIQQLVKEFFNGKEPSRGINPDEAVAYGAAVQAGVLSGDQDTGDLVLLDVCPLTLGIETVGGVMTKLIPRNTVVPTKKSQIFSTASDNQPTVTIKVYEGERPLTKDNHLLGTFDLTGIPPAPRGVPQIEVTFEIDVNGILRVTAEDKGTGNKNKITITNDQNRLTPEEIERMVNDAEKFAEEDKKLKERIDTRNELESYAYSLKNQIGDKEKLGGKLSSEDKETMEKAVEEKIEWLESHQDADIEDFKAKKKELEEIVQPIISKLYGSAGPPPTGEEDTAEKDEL
The assay is described as follows: DSF specificity control with BiP. Format: binding. To be noted: same increasing metabolite concentrations.

In assay [2] the target is T1, FicD^WT. The assay is described as follows: In vitro deAMPylation of Δ26hBiP^T229A-AMP by FicD^WT (Western blot). Type of assay: biochemical. To be noted: for inhibition of deAMPylation activity of FicD^WT: 100 μM metabolite, 5 mM MgCl2; for concentration at which inhibition of deAMPylation started: dose-response Western blot, FicD^WT.
Description: as §1
For deAMPylation assays with FicD and BiP, Δ26hBiPT229A was in-vitro AMPylated by […]
5mM MgCl2, 500uM ATP, 0.5% CHAPS, 1mM DTT. After one hour of incubation at 30-37C, the entire reaction mix was transferred into an Amicon 0.5mL 50kDa MWCO concentrator (cat no.
7.4/150mM NaCl/10% glycerol/1mM DTT was added to the concentrated AMPylation reaction and then spun down again at 14,000 x g at 4C for 5-10 minutes. This step was repeated four times to buffer exchange AMPylated Δ26hBiPT229A.
Δ104hFicDWT and Δ26hBiPT229A-AMP were combined at a ratio of 1:80 in buffer containing 25mM HEPES pH 7.4, 100mM KCl, 5mM MgCl2, 1mM DTT and the indicated small molecule where applicable. Reactions were incubated at 37C for 1 hour and stopped by the addition EDTA. 5X SDS sample buffer (250mM Tris pH 6.8, 10% Lithium dodecyl sulfate, 50% glycerol, 50mM DTT, 0.05% Bromophenol blue) was then added to the reactions and reactions were heated for 5 minutes at […]

A further assay addresses T4, FicD^R374C (Homo sapiens, UniProt Q9BVA6, R374C).
T4 construct: Wild-type FicD (residues 105-458) and all mutants were expressed as N-terminal 6xHis-Sumo fusions; 6xHis-Sumo (N, cleaved yes); made in house; host or cells: Rosetta(DE3) E. coli
T4 sequence (Q9BVA6 105-458 R374C): T1 sequence (Q9BVA6 105-458) with R270C
The assay is described as follows: DSF with FicD^R374C variant. Format: binding.

Setting [3] is: substrate exceeds FPP by two to three orders of magnitude.

Numbering of substitutions follows the chain as printed.

Description for FicD^E234G: To identify small-molecule metabolite interactions with FicD, we applied an unbiased high-throughput screening approach known as MIDAS ([44]).

With `CC(C)=CCC/C(C)=C/COP(=O)(O)OP(=O)(O)O` [GPP, geranyl-pyrophosphate], at FicD^WT [1], the “inhibition of AMPylation of Δ26hBiP^T229A by FicD^WT” value was “inhibited” and the “concentration at which inhibition of AMPylation started” value came out at 20 µM. In addition, on FicD^E234G, the “MIDAS protein-metabolite interaction (enrichment/depletion)” value is on record as “significantly enriched”. Further, on BiP, the “change in melt curves or Tm of BiP” value is given as “neither GPP nor FPP elicited a change”. For the same molecule, on FicD^WT [2], the “inhibition of deAMPylation activity of FicD^WT” value was “inhibited” and the “concentration at which inhibition of deAMPylation started” value is 5 µM.

With `CC(C)=CCC/C(C)=C/CC/C(C)=C/COP(=O)(O)OP(=O)(O)O` [FPP, farnesyl-pyrophosphate], on FicD^WT [1], the “inhibition of AMPylation of Δ26hBiP^T229A by FicD^WT” value was “inhibited” and the “concentration at which inhibition of AMPylation started” value was determined as 5 µM. For the same molecule, the “apparent EC50 of inhibition of AMPylation” value on FicD^WT [1] (setting [3]) is “low micromolar range”. The “change in melt curves or Tm of BiP” value on BiP is “neither GPP nor FPP elicited a change”. Besides, at FicD^WT [2], the “inhibition of deAMPylation activity of FicD^WT” value is on record as “inhibited” and the “concentration at which inhibition of deAMPylation started” value stood at 1 µM. The “apparent EC50 of inhibition of deAMPylation” value on FicD^WT [2] (setting [3]) is on record as “low micromolar range”. The “binding to R374C variant by DSF (melting curve shift)” value at FicD^R374C (absence of Mg2+) was “caused shifts in the melting curves”. Besides, at FicD^R374C (addition of Mg2+), the “binding to R374C variant by DSF (melting curve shift)” value is “enhanced the binding”.

With `Nc1ncnc2c1ncn2[C@@H]1O[C@H](COP(=O)(O)OP(=O)(O)O)[C@@H](O)[C@H]1O` [ADP], at FicD^E234G, the “MIDAS protein-metabolite interaction (enrichment/depletion)” value was “significantly enriched”.
